Assays:
[1] = system: vaginal epithelium; test: Vaginal epithelium thickness evaluation in ovariectomized rats; type: in vivo, rat; conditions: 6-week treatment
Description: (§1) 8-10 weeks-old female Sprague Dawley rats (Janvier, France) are first acclimated during a period of time of one week or more.
(§2) The acclimated rats undergo a bilateral ovariectomy (at “Day 0”), so as to induce an experimental menopause.
(§3) Three weeks after ovariectomy (at Day 21), the ovariectomized rats are divided in five distinct groups of at least eight animals per group, respectively: • Group 1: the ovariectomized rats receive no treatment at all • Group 2: the ovariectomized rats are administered once daily with an ovule comprising a liquid saline (placebo) • Group 3: the ovariectomized rats are administered once daily with an ovule comprising estradiol alone, in the absence of vitamin D analog • Group 4: the ovariectomized rats are administered once daily with an ovule comprising vitamin D analog alone, in the absence of estradiol. • Group 5: the ovariectomized rats are administered once daily with an ovule comprising (i) the combination of estradiol and vitamin D analog.
(§4) Each of the Groups 1, 2, 3, 4 and 5 of ovariectomized rats receives the indicated treatment during a period of time of six weeks (thus until Day 63).
One part of the vagina tissue material is paraffin-embedded. Slices of the paraffin-embedded vaginal tissue are stained for studying and measuring the vaginal epithelium thickness as well as the vaginal epithelium morphology. […]

[2] = system: vaginal epithelium; conditions: oral 0.500 mcg calcitriol/day, at least one year, vs non-supplemented postmenopausal women; cited from earlier work
[3] = system: vaginal epithelium; test: Vaginal Maturation Index: percentage of cornified cells in vaginal smears of ovariectomized rats; type: in vivo, rat; conditions: calcitriol, irrespectively of the doses tested
Procedure: as §3, §4
(§5) Smears of vaginal tissue are collected from each of the tested animal by gentle scraping along the wall of the vagina the day before the first treatment and the day following the last treatment for determining the Vaginal Maturation Index (VMI).
(§6) For each rat, 2 samples are taken by gentle scraping along the wall of the vagina. […]
(§7) VMI is assessed as a ratio obtained through performing a random count of 3 major cell types. […]

[4] = Body weight evolution in ovariectomized rats during 6-week local treatment; type: in vivo, rat; conditions: 6-week treatment, irrespective of the dose
Description: as §1, §2, §3, §4
The body weight of each tested animal is monitored twice a week.

[5] = Calcium plasma level in ovariectomized rats; type: in vivo, rat
Procedure: as §3, §4

[6] = system: vaginal epithelium; test: Vaginal Maturation Index: percentage of leukocytes in vaginal smears of ovariectomized rats; type: in vivo, rat; conditions: calcitriol alone at 0.006 μg
Procedure: as §3, §4, §5, §6, §7

[7] = system: vaginal atrophy; conditions: vaginal suppository 1000 IU, daily for 8 weeks, 44 postmenopausal women; cited from earlier work
[8] = system: vaginal epithelium; test: Histology of the vaginal tissue cornified cell layer in ovariectomized rats (FIG. 3); type: in vivo, rat
Procedure: as §3, §4
One part of the vagina tissue material is paraffin-embedded. Slices of the paraffin-embedded vaginal tissue are stained for studying and measuring the vaginal epithelium thickness as well as the vaginal epithelium morphology.
Vaginal tissue is then separated into two parts: • one half is fixed in 10% neutral buffered formalin and paraffin-embedded for epithelium thickness evaluation and morphology (H&E coloration) • the second half will be immediately frozen and stored at −80° C. for further evaluation.
Vaginal tissue is embedded in paraffin, sectioned and stained with hematoxylin/eosine (2 slides/rat) using a fully automated multi-stainer system for histological analysis, the Multistainer ST5020 in conjunction with the CV5030 Coverslipper marketed by the Company Leica Biosystems (Germany).

[9] = system: vaginal maturation index and urogenital symptoms; conditions: oral raloxifene 60 mg/day with 400 IU vitamin D and 600 mg calcium, 3 months, vs risedronate-based regimen; cited from earlier work

C=C1/C(=C\C=C2/CCC[C@]3(C)[C@@H]([C@H](C)CCCC(C)(C)O)CC[C@@H]23)C[C@@H](O)C[C@@H]1O [Calcitriol, 1α,25-dihydroxyvitamin D3]
vaginal epithelium thickness as compared to placebo ([1]; calcitriol alone, irrespective of the dose tested): did not cause any change | squamous maturation of the vaginal epithelium [2]: resulted in squamous maturation | content of the vaginal epithelium cornified cells [3]: no significant change | body weight evolution [4]: did not cause any change | calcium plasma level: significance versus placebo ([5]; Calcitriol 0.08 μg): **** (“****” means p<0.001 versus placebo) | calcium plasma level: significance versus placebo ([5]; Calcitriol 0.1 μg): **** (“****” means p<0.001 versus placebo) | calcium plasma level ([5]; calcitriol dose 0.006 μg): did not cause any significant change | calcium plasma level ([5]; dose of 0.08 μg): significantly increased | calcium plasma level ([5]; dose of 0.1 μg): significantly increased | vaginal epithelium content in leukocytes [6]: no effect

vitamin D
superficial cells in the vaginal epithelium [7]: significant increase | vaginal pH [7]: significant decrease

C[C@]12CC[C@@H]3c4ccc(O)cc4CC[C@H]3[C@@H]1CC[C@@H]2O [Estradiol, (17beta)-estra-1,3,5(10)-triene-3,17-diol]
vaginal epithelium thickness as compared to placebo ([1]; 0.4 μg dose of estradiol): high increase | body weight evolution [4]: did not cause any change | cornified cell layer in histological photograph ([8]; 0.02 μg dose of estradiol (FIG. 3B)): does not cause a detectable change | cornified cell layer in histological photograph ([8]; 0.08 μg estradiol (FIG. 3C)): thickness and a density which increase with the increasing doses | cornified cell layer in histological photograph ([8]; 0.4 μg estradiol (FIG. 3D)): thickness and a density which increase with the increasing doses

O=C(c1ccc(OCCN2CCCCC2)cc1)c1c(-c2ccc(O)cc2)sc2cc(O)ccc12 [raloxifene]
vaginal maturation index [9]: improvement | vaginal pH [9]: improvement

— patent US20190224213A1, “VAGINAL COMPOSITION COMPRISING A COMBINATION OF ESTROGEN AND VITAMIN D” (CHEMO RESEARCH S.L., priority 2016, published 2019)
